The values below come from article PMC9508196 (Scientific Reports, 2022).

Non-standard residues stand in square brackets, D forms with d. Residues, ends and D or L forms follow the SMILES beside them. No end group written: not given here.

Assay [1] has as its system A. baumannii ATCC 19,606. Briefly: Peptide stability in human plasma (MIC/MBC after pre-incubation). The class given is cell-based, Acinetobacter baumannii. Conditions: peptide mixed with pure human plasma, 1 h, 37 °C, then two-fold diluted in MHB, bacteria 24 h. The procedure:
(§1) Minimum inhibitory concentration (MIC) of peptides and antibiotics was assessed by a modified version of the broth microdilution method from the Clinical and Laboratory Standards Institute (CLSI) as previously described. In brief, mid-log phase growths of microbial strains were cultured in Müeller-Hinton broth (MHB) with an initial inoculum of 2–8 × 10^5 CFU/mL. Bacteria suspensions were incubated in sterile 96-well plates with test agents at desired concentrations. […] Minimum bactericidal concentration (MBC) determination was performed using a modified version of the colony count assay. In brief, fifty µl of all non-turbid wells from MIC experiments were spread on agar plates. The MBC value was defined as the lowest concentration of peptides with no colony growth on the plate. All assays were performed in triplicate.
The MIC and MBC assays were performed after peptide was exposed to various conditions, including proteolytic enzymes, serum salts and human plasma. […] To determine peptide sensitivity to physiological salts, approximately 5 × 10^5 CFU/ml of A. baumannii ATCC 19,606 was mixed with the MHB containing different physiological salts at final concentration as follows: 150 mM NaCl, 4.5 mM KCl, 1 mM MgCl2, 6 µM NH4Cl, 8 µM ZnCl2, 4 µM FeCl3 and […]. After treatment, the MIC was evaluated as described in 2.4. To test the stability of peptides in human plasma, peptide was mixed with pure human plasma, and the mixture was incubated for 1 h at 37 °C. Then, the mixture was two-fold serially diluted with sterile MHB. The peptides at final concentrations of 0.98 to 250 µg/ml were incubated with an equal volume of bacterial suspension at 37 °C for 24 h. MIC values were determined as described in 2.4.

The test system of assay [2] is Escherichia coli O157:H7 MT strain. Format: cell-based. Conditions: E. coli O157:H7 MT strain; broth microdilution, MHB, 24 h, 37 °C, triplicate.
Description: (§2) Ten strains of both Gram-positive and -negative bacteria, including Staphylococcus aureus ATCC 25,923, S. epidermidis ATCC 12,228, Bacillus cereus ATCC 11,778, Listeria monocytogenes 10403S, Salmonella typhimurium ATCC 13,311, Pseudomonas aeruginosa ATCC 27,853, Shigella sonnei ATCC 11,060, A. baumannii ATCC 19,606, Escherichia coli ATCC 25,922 and E. coli O157:H7, were used in this study. Eight clinical isolates of multidrug-resistant (MDR) and extensively drug-resistant (XDR) A. baumannii, isolated from human (blood, sputum, respiratory sample, sterile site sample and urine), were kindly provided by Asst. Prof. Dr. Sakawrat Kanthawong (Faculty of Medicine, Khon Kaen University, Thailand) (Table S1). All bacterial strains, excluding L. monocytogenes 10403S and E. coli, were cultured in tryptic soy broth (TSB). L. monocytogenes was grown in TSB supplemented with 0.6% yeast extract (TSB-YE), and E. coli was cultured in Luria broth (LB). All of bacteria were cultured at 37 °C with continuous shaking at 220 rpm.
as §1

Assay [3] concerns Escherichia coli ATCC 25,922. Format: cell-based. The conditions noted are these: E. coli ATCC 25,922; broth microdilution, MHB, 24 h, 37 °C, triplicate.
Description: as §2, §1
A general note: Dilution methods test growth across graded concentrations, often in twofold steps.

The subject of assay [4] is Staphylococcus epidermidis ATCC 12,228. The class given is cell-based. The conditions noted are these: S. epidermidis ATCC 12,228; broth microdilution, MHB, 24 h, 37 °C, triplicate.
Description: as §2, §1

For assay [5], the system named is Bacillus cereus ATCC 11,778. The class given is cell-based. The conditions noted are these: B. cereus ATCC 11,778; broth microdilution, MHB, 24 h, 37 °C, triplicate.
Description: as §2, §1

For assay [6], the system named is Salmonella Typhimurium ATCC 13,311. Format: cell-based. Conditions: S. Typhimurium ATCC 13,311; broth microdilution, MHB, 24 h, 37 °C, triplicate.
Description: as §2, §1

The test system of assay [7] is Shigella sonnei ATCC 11,060. The class given is cell-based. The conditions noted are these: S. sonnei ATCC 11,060; broth microdilution, MHB, 24 h, 37 °C, triplicate.
Description: as §2, §1

In assay [8] the test system is Listeria monocytogenes 10403S. Format: cell-based. Conditions: L. monocytogenes 10403S; broth microdilution, MHB, 24 h, 37 °C, triplicate.
Description: as §2, §1

The subject of assay [9] is Pseudomonas aeruginosa ATCC 27,853. Format: cell-based. Conditions: P. aeruginosa ATCC 27,853; broth microdilution, MHB, 24 h, 37 °C, triplicate.
Description: as §2, §1

The subject of assay [10] is Staphylococcus aureus ATCC 25,923. The class given is cell-based. Conditions: S. aureus ATCC 25,923; broth microdilution, MHB, 24 h, 37 °C, triplicate.
Description: as §2, §1

Assay [11] relates to A. baumannii C-8.1–2 (MDR). Briefly: microbe, parasite or virus in culture. Conditions: clinical isolate C-8.1–2 (MDR), sterile site. The class given is cell-based, Acinetobacter baumannii. The method, boiled down:
(§3)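 Read-out: MIC from modified CLSI microdilution in MHB, starting inoculum 2–8 × 10^5 CFU/mL of mid-log cultures exposed to peptides or antibiotics. Bactericidal endpoint was the lowest peptide level yielding no colonies after plating clear wells.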

Assay [12] has as its system A. baumannii C-8.2–1 (XDR). Briefly: microbe, parasite or virus in culture. The class given is cell-based, Acinetobacter baumannii. Conditions: clinical isolate C-8.2–1 (XDR), sterile site. The method, boiled down: as §3
Assay [13] deals with A. baumannii B-8.1–2 (MDR). The assay can be described thus: microbe, parasite or virus in culture. Format: cell-based, Acinetobacter baumannii. The conditions noted are these: clinical isolate B-8.1–2 (MDR), respiratory tract. The procedure, abridged: as §3
The subject of assay [14] is A. baumannii B-8.1–1 (MDR). The assay can be described thus: microbe, parasite or virus in culture. Format: cell-based, Acinetobacter baumannii. The conditions noted are these: clinical isolate B-8.1–1 (MDR), respiratory tract. The procedure, abridged: as §3
For assay [15], the system named is A. baumannii B-8.2–2 (XDR). The assay can be described thus: microbe, parasite or virus in culture. Conditions: clinical isolate B-8.2–2 (XDR), respiratory tract. Format: cell-based, Acinetobacter baumannii. The procedure, abridged: as §3
The test system of assay [16] is A. baumannii ATCC 19,606. Briefly: microbe, parasite or virus in culture. Format: cell-based, Acinetobacter baumannii. Conditions: A. baumannii ATCC 19,606, triplicate; for MIC: broth microdilution (modified CLSI), MHB, 2–8 × 10^5 CFU/mL, 24 h, 37 °C; for MBC: colony count from non-turbid MIC wells. The procedure, abridged:
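Lowest concentration preventing growth defined MIC (CLSI-based broth dilution, MHB, 2–8 × 10^5 CFU/mL); MBC was scored by colony-count plating of non-turbid wells, with absence of colonies marking the bactericidal level.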

As for RLFRRVKKVAGKIAKRIWK-NH2 [AP19], the “MBC in the presence of human plasma” value in the assay on A. baumannii ATCC 19,606 [1] was 250(250) µg/ml. In the assay with A. baumannii ATCC 19,606 [1], the “MIC in the presence of human plasma” value is 250(250) µg/ml. In addition, the MIC was 15.63 µg/mL in [2]; 3.91 µg/mL in assay [3]; 1.95 µg/mL in assay [4]; 7.81 µg/mL in [5]; 1.95 µg/mL in [6]; 3.91 µg/mL in [7]. The MIC was 3.91 µg/mL in [8]; 3.91 µg/mL in assay [9]; 7.81 µg/mL in assay [10]; 3.91(3.91) µg/ml in [11]; 7.81(7.81) µg/ml in assay [12]; 7.81(7.81) µg/ml in [13]. Also, the MIC in assay [14] was 7.81(7.81) µg/ml; in assay [15], 7.81(7.81) µg/ml; in the assay on A. baumannii ATCC 19,606 [16], 7.81 µg/mL. Moreover, the MBC is listed as 3.91(3.91) µg/ml in [11]; 7.81(7.81) µg/ml in assay [12]; 7.81(7.81) µg/ml in [13]; 7.81(7.81) µg/ml in assay [14]; 7.81(7.81) µg/ml in assay [15]; 7.81 (7.81) µg/ml against A. baumannii ATCC 19,606 [16].
`CC[C@@H](C)[C@@H](NC(=O)[C@@H](CCCCN)NC(=O)CNC(=O)[C@@H](C)NC(=O)[C@H](NC(=O)[C@@H](CCCCN)NC(=O)[C@@H](CCCCN)NC(=O)[C@H](NC(=O)[C@@H](CCCNC(=N)N)NC(=O)[C@@H](CCCNC(=N)N)NC(=O)[C@@H](Cc1ccccc1)NC(=O)[C@@H](CC(C)C)NC(=O)[C@H](N)CCCNC(=N)N)C(C)C)C(C)C)C(=O)N[C@H](C)C(=O)N[C@H](CCCCN)C(=O)N[C@H](CCCNC(=N)N)C(=O)N[C@@H](C(=O)N[C@H](Cc1c[nH]c2ccccc12)C(=O)N[C@H](CCCCN)C(N)=O)[C@H](C)CC` [D-AP19] (H-[dR][dL][dF][dR][dR][dV][dK][dK][dV][dA]G[dK][dI][dA][dK][dR][dI][dW][dK]-NH2): the “MBC in the presence of human plasma” value in the assay on A. baumannii ATCC 19,606 [1] is 31.25(31.25) µg/ml. Moreover, the “MIC in the presence of human plasma” value with A. baumannii ATCC 19,606 [1] is 31.25(31.25) µg/ml. In addition, the MBC in [11] is listed as 3.91(3.91) µg/ml; in assay [12] it was 7.81(7.81) µg/ml; in [13], 15.63(15.63) µg/ml; in assay [14], 7.81(7.81) µg/ml; in assay [15], 7.81(7.81) µg/ml; against A. baumannii ATCC 19,606 [16], 7.81 (7.81) µg/ml. The MIC is 3.91(3.91) µg/ml in assay [11]; 7.81(7.81) µg/ml in assay [12]; 15.63(15.63) µg/ml in assay [13]; 7.81(7.81) µg/ml in [14]; 7.81(7.81) µg/ml in assay [15]; 7.81 (7.81) µg/ml with A. baumannii ATCC 19,606 [16].
